# Measured values taken from US20110195845A1, “Constructs for Expressing Herbicide Tolerance Genes, Related Plants, and Related Trait Combinations” (Dow AgroSciences LLC, priority 2008, published 2011).
# Tests used:
# [1] = tested on: NT-1 tobacco suspension cells treated with PAT (pDAB3779); assay: NT-1 tobacco cell transformation, selection on bialaphos; type: cell-based; conditions: % of selection plates with at least one PCR positive isolate
# Procedure: (§1) Four days prior to transformation, a 1 week old NT-1 tobacco suspension, which was being subcultured every 7 days, was subcultured to fresh medium by adding 2 ml of the NT-1 culture or 1 ml of packed cells into 40 ml NT-1 B media. The subcultured suspension was maintained in the dark at 25±1° C. on a shaker at 125 rpm.
# (§2) A 50% glycerol stock of Agrobacterium tumefaciens [strain LBA4404] harboring a binary vector of interest was used to initiate a liquid overnight culture by adding 20, 100, or 500 μl to 30 ml YEP liquid (10 g/L yeast extract, 10 g/L Peptone, 5 g/L NaCl, 0-10 g/L Sucrose) containing 50-100 mg/L spectinomycin. The bacterial culture was incubated in the dark at 28° C. in an incubator shaker at 150-250 rpm until the OD600 was 1.5+0.2. This took approximately 18-20 hrs.
# For each vector tested, 20-70 mL of 4-day old suspension cells were transferred into a sterile vessel, to which 500-1750 μl of Agrobacterium suspension at the proper OD was added. To ensure a uniform mixture was achieved, the cells were pipetted up and down 5 times with a 10 ml wide-bore pipet. The uniform suspension was then drawn up into a 25 ml barrel of a repeat pipetter and 250 μl of the suspension was dispensed per well into 24-well plates, continuing until the suspension was exhausted. […]
# [2] = tested on: NT-1 tobacco suspension cells treated with DSM-2 (v2) (pDAB3778); assay: NT-1 tobacco cell transformation, selection on bialaphos or glufosinate ammonium; type: cell-based; conditions: for Transformation Frequency on 10 mg/L Bialaphos following PCR Verification: % of selection plates with at least one PCR positive isolate
# Procedure: as §1, §2
# For each vector tested, 20-70 mL of 4-day old suspension cells were transferred into a sterile vessel, to which 500-1750 μl of Agrobacterium suspension at the proper OD was added. To ensure a uniform mixture was achieved, the cells were pipetted up and down 5 times with a 10 ml wide-bore pipet. The uniform suspension was then drawn up into a 25 ml barrel of a repeat pipetter and 250 μl of the suspension was dispensed per well into 24-well plates, continuing until the suspension was exhausted. The well plates were wrapped in parafilm and cultured in the dark at 25±1° C. without shaking for a 3 day co-cultivation.
# Following the co-cultivation, all excess liquid was removed from the individual wells with a 1 mL pipet tip, and remaining cells were resuspended in 1 ml NTC liquid (NT-1 B medium containing 500 mg/L carbenicillin, added after autoclaving). The contents of an individual well were dispersed across the entire surface of 100×25 mm selection plates using disposable transfer pipets. Selection media consisted of NTC media solidified with 8 g/l TC agar supplemented with 7.5 to 15 mg/L bialaphos or technical grade glufosinate ammonium, added after autoclaving. All selection plates, left unwrapped, were maintained in the dark at 28° C.
# Putative transformants appeared as small clusters of callus on a background of dead, non-transformed cells. Calli were isolated approximately 2-6 weeks post-transformation. Each callus isolate was transferred to its own 60×20 mm plate containing the same selection medium and allowed to grow for approximately 2 weeks before being submitted for analysis.
compound,measurement,setting,value
C[C@H](NC(=O)[C@H](C)NC(=O)[C@@H](N)CCP(C)(=O)O)C(=O)O [Bialaphos],Transformation Frequency on 10 mg/L Bialaphos following PCR Verification,[1],100%
same,Transformation Frequency on 10 mg/L Bialaphos following PCR Verification,[1]; listed as bialaphos,100%
same,Transformation frequency (% of selection plates producing at least one callus) after coding region PCR,[2]; 7.5 mg/L selection agent,38.9%
same,Transformation Frequency on 10 mg/L Bialaphos following PCR Verification,[2],79%
same,Transformation Frequency on 10 mg/L Bialaphos following PCR Verification,[2]; listed as bialaphos,79%
same,Transformation frequency (% of selection plates producing at least one callus) after coding region PCR,[2]; 10 mg/L selection agent,44.4%
same,Transformation frequency (% of selection plates producing at least one callus) after coding region PCR,[2]; 12.5 mg/L selection agent,38.9%
same,Transformation frequency (% of selection plates producing at least one callus) after coding region PCR,[2]; 15 mg/L selection agent,22.2%
